The test system of one data set is HepG2 cell line. The data set is described as follows: MTT assay, cell viability against HepG2. It is filed as cell-based. Conditions: Homo sapiens; for inhibition at 3.125 µg/mL / inhibition at 6.25 µg/mL / inhibition at 12.5 µg/mL / inhibition at 25 µg/mL / inhibition at 50 µg/mL / inhibition at 100 µg/mL / inhibition at 200 µg/mL: HepG2; for IC50: HepG2, MTT, 48 h. The method, then: The anti-hepatocellular activity of afforded N-arylated 1,2,4-triazole coupled acetamides (7a–f) was evaluated via MTT assay and these structural hybrids were screened against a liver cancer HepG2 cell line.
The cell viability of all of the compounds was further evaluated using various concentrations ([…]) to test the dose response and % inhibition relationship as shown in Table 2.
Human HepG2 liver cancer cell lines were cultured by Dulbecco’s modified Eagle’s medium. It is composed of 100 μg/mL streptomycin, 100 units/mL penicillin, and 10% FBS. A humidified atmosphere was provided for incubation at 37 °C with 5% CO2. The anti-hepatocellular therapeutic potential of triazole-based scaffolds was evaluated by dissolving its different concentrations in 0.05% DMSO.
An MTT assay was applied for evaluation of cell viability against the HepG2 cell line. In short, different concentrations of new triazole-based scaffolds were incubated with HepG2 cell lines for 48 h. After incubation, 5 mg/mL of 10 µL MTT solution was added in each plate and they were further incubated at 37 °C for 4 h. The percentage of cell viability was calculated at 490 nm after the addition of 150 μL DMSO into a microplate reader (Thermo Scientific, Waltham, MA, USA).
Background: Formazan colour is commonly taken as a measure of viable cells.

Data set [1] can be described thus: Hemolytic activity, Triton-X-100 as standard. To be noted: relative to Triton-X-100. The source says:
Hemolytic activity was investigated by the reported method using Triton-X-100 as a standard. Molecule 7f also presented very low toxicity at 1.19 ± 0.02 relative to reference Triton-X-100. All of the other compounds had moderately good hemolytic activity.
Hemolytic activity was investigated by the reported method using Triton-X-100 as standard.

The conditions of data set [2]: no reference given; cited from earlier work.

In brackets after ≈: the same amount, converted by molar mass.

The term inhibition denotes the change of the read-out against control, counted positive when it falls. A lower inhibition goes with a weak effect. Broadly, the IC50 is the concentration at which inhibition is half-maximal. Read a high IC50 as a need for much substance. Usually melting point stands for the temperature of the solid-liquid transition. Consider `CC(C)Cc1ccc(C(C)c2nnc(SCC(=O)Nc3ccccc3)n2C)cc1` (stereo not shown) [Compound 7e, N-(Phenyl)-2-((5-(1-(4-Isobutylphenyl)Ethyl)-4-Methyl-4H-1,2,4-Triazol-3-yl)Thio)Acetamide], for which the melting point was 88 to 90 °C. Besides, in the data set with HepG2 cell line, 3.125 µg/mL produced 18.6 ± 0.5% inhibition, the inhibition at 6.25 µg/mL was found to be 20.5 ± 7.11%, at 12.5 µg/mL the inhibition was 21 ± 3.13% and testing at 25 µg/mL gave an inhibition of 24 ± 6.12%. For the same compound, in the data set with HepG2 cell line, testing at 50 µg/mL gave an inhibition of 74.2 ± 13.2%, testing at 100 µg/mL gave an inhibition of 87.3 ± 2.09%, the inhibition at 200 µg/mL is 88 ± 1.44% and the 50% inhibitory concentration (IC50) was found to be 39.1 µg/mL (≈ 95.7 µM).

Compound `CCc1ccc(NC(=O)CSc2nnc(C(C)c3ccc(CC(C)C)cc3)n2C)cc1` (stereo not shown) [Compound 7c, N-(4-Ethylphenyl)-2-((5-(1-(4-Isobutylphenyl)Ethyl)-4-Methyl-4H-1,2,4-Triazol-3-yl)Thio)Acetamide] showed a melting point of 100 to 102 °C. Further, in the data set on HepG2 cell line, 3.125 µg/mL produced 15.4 ± 2.01% inhibition, the inhibition at 6.25 µg/mL turned out to be 17.4 ± 1.32%, the inhibition at 12.5 µg/mL was found to be 19.1 ± 1.25% and the inhibition at 25 µg/mL is 22.8 ± 0.29%. In the data set with HepG2 cell line, this compound displayed an inhibition at 50 µg/mL of 73.7 ± 15.5%, an inhibition at 100 µg/mL of 78.8 ± 10.8%, an inhibition at 200 µg/mL of 87.51 ± 0.2% and an IC50 of 39 µg/mL (≈ 89.3 µM).

Turning to `Cc1cccc(C)c1NC(=O)CSc1nnc(C(C)c2ccc(CC(C)C)cc2)n1C` (stereo not shown) [Compound 7f, N-(2,6-Dimethylphenyl)-2-((5-(1-(4-Isobutylphenyl)Ethyl)-4-Methyl-4H-1,2,4-Triazol-3-yl)Thio)Acetamide], the melting point lay within 150 to 152 °C. Also, in the data set on HepG2 cell line, 3.125 µg/mL produced 8.4 ± 4.54% inhibition, the inhibition at 6.25 µg/mL was found to be 19.6 ± 4.07%, the inhibition at 12.5 µg/mL was 34 ± 2.47% and 25 µg/mL produced 85.9 ± 0.3% inhibition. In the data set on HepG2 cell line, at 50 µg/mL the inhibition was 86.57 ± 0.56%, at 100 µg/mL the inhibition was 87.7 ± 1.34%, the inhibition at 200 µg/mL amounted to 88.36 ± 0.31% and the IC50 came to 16.8 µg/mL (≈ 38.4 µM).

The compound `Cc1ccccc1NC(=O)CSc1nnc(C(C)c2ccc(CC(C)C)cc2)n1C` (stereo not shown) [Compound 7a, N-(2-Methylphenyl)-2-((5-(1-(4-isobutylphenyl)ethyl)-4-methyl-4H-1,2,4-triazol-3-yl)thio)Acetamide] displayed a melting point of 122 to 124 °C. For the same compound, in the data set on HepG2 cell line, the inhibition at 3.125 µg/mL was determined as 11.6%, testing at 6.25 µg/mL gave an inhibition of 21.4 ± 6.24%, at 12.5 µg/mL the inhibition was 27.7 ± 6.46% and the inhibition at 25 µg/mL was 64 ± 1.67%. Further, in the data set with HepG2 cell line, testing at 50 µg/mL gave an inhibition of 75.2 ± 5.99%, the inhibition at 100 µg/mL was found to be 88.17 ± 0.26%, 200 µg/mL produced 89.4 ± 0.34% inhibition and half-maximal inhibition (IC50) required 20.7 µg/mL (≈ 48.9 µM).

Regarding Triton-X-100 [reference compound], the “Hemolytic Activity (Mean% ± S.D)” value in data set [1] amounted to 100 ± 0.0%; in data set [1] (listed as Triton X100), 100%.

Regarding `CNC(=O)c1cc(Oc2ccc(NC(=O)Nc3ccc(Cl)c(C(F)(F)F)c3)cc2)ccn1` [Sorafenib, reference compound], the IC50 with HepG2 cell line came out at 5.97 µg/mL (≈ 12.8 µM). Further, in data set [2], the bioavailability is 38–49%.

Take `CC(C)Cc1ccc(C(C)c2nnc(SCC(=O)Nc3ccccc3Cl)n2C)cc1` (stereo not shown) [Compound 7d, N-(2-Chlorophenyl)-2-((5-(1-(4-Isobutylphenyl)Ethyl)-4-Methyl-4H-1,2,4-Triazol-3-yl)Thio)Acetamide]: the melting point lay within 123 to 125 °C. In the data set with HepG2 cell line, this compound came in with an inhibition at 3.125 µg/mL of 14.3 ± 4.27%, an inhibition at 6.25 µg/mL of 17.3 ± 1.4%, an inhibition at 12.5 µg/mL of 19.1 ± 17.7% and an inhibition at 25 µg/mL of 19.5 ± 1.44%. In the data set on HepG2 cell line, this compound returned an inhibition at 50 µg/mL of 76.7 ± 5.63%, an inhibition at 100 µg/mL of 78.33 ± 0.78%, an inhibition at 200 µg/mL of 87.7 ± 0.18% and an IC50 of 39.7 µg/mL (≈ 89.5 µM).

As for `Cc1cc(Br)ccc1NC(=O)CSc1nnc(C(C)c2ccc(CC(C)C)cc2)n1C` (stereo not shown) [Compound 7b, N-(4-Bromo-2-Mthylphenyl)-2-((5-(1-(4-Isobutylphenyl)Ethyl)-4-Methyl-4H-1,2,4-Triazol-3-yl)Thio)Acetamide], the melting point was 122 to 124 °C. In the data set on HepG2 cell line, this compound returned an inhibition at 3.125 µg/mL of 10.3%, an inhibition at 6.25 µg/mL of 24.8 ± 4.62%, an inhibition at 12.5 µg/mL of 25.2 ± 4.67% and an inhibition at 25 µg/mL of 31.9 ± 0.3%. In the data set with HepG2 cell line, this compound displayed an inhibition at 50 µg/mL of 88.6 ± 1.11%, an inhibition at 100 µg/mL of 89.4 ± 0.91%, an inhibition at 200 µg/mL of 89.5 ± 0.06% and an IC50 of 33.6 µg/mL (≈ 66.9 µM).
